# Results published in ChEMBL document CHEMBL1141324, “Saponins from the roots of Nylandtia spinosa” (J Nat Prod, 2007).
# Assays:
# HCT-116 = test: Cytotoxicity against human HCT116 cells by MTT assay; format: functional, cell-based
# HT-29 = test: Cytotoxicity against human HT29 cells by MTT assay; format: functional, cell-based
Compound,IC50 (HCT-116),IC50 (HT-29)
C[C@@H]1O[C@H](OC(=O)[C@]23CCC(C)(C)CC2C2=CCC4[C@@]5(C)C[C@H](O)[C@H](O[C@@H]6O[C@H](CO)[C@@H](O)[C@H](O)[C@H]6O)[C@@](C)(C(=O)O)[C@@H]5CC[C@@]4(C)[C@]2(CO)CC3)[C@@H](O[C@H]2O[C@H](C)[C@@H](O[C@@H]3OC[C@@H](O[C@@H]4OC[C@](O)(CO)[C@H]4O)[C@H](O)[C@H]3O[C@H]3O[C@@H](CO)[C@@H](O)[C@@H](O)[C@@H]3O)[C@H](O)[C@@H]2O)[C@H](O)[C@@H]1O (stereo not given in full),> 5 µg/mL,> 5 µg/mL
C[C@@H]1O[C@H](OC(=O)[C@]23CCC(C)(C)CC2C2=CCC4[C@@]5(C)C[C@H](O)[C@H](O[C@@H]6O[C@H](CO)[C@@H](O)[C@H](O)[C@H]6O)[C@@](C)(C(=O)O)[C@@H]5CC[C@@]4(C)[C@]2(CO)CC3)[C@@H](O[C@H]2O[C@H](C)[C@@H](O[C@@H]3OC[C@@H](O[C@@H]4O[C@H](CO)[C@H](O)[C@H](O)[C@H]4O)[C@H](O[C@@H]4OC[C@H](O)[C@H](O)[C@H]4O)[C@H]3O)[C@H](O)[C@@H]2O)[C@H](O)[C@@H]1O (stereo not given in full),> 5 µg/mL,> 5 µg/mL
C[C@@H]1O[C@H](OC(=O)[C@]23CCC(C)(C)CC2C2=CCC4[C@@]5(C)C[C@H](O)[C@H](O[C@@H]6O[C@H](CO)[C@@H](O)[C@H](O)[C@H]6O)[C@@](C)(C(=O)O)[C@@H]5CC[C@@]4(C)[C@]2(CO)CC3)[C@@H](O[C@H]2O[C@H](C)[C@@H](O[C@@H]3OC[C@@H](O)[C@H](O[C@@H]4OC[C@](O)(CO)[C@H]4O)[C@H]3O)[C@H](O)[C@@H]2O)[C@H](O)[C@@H]1O (stereo not given in full),> 5 µg/mL,> 5 µg/mL
C[C@@H]1O[C@H](OC(=O)[C@]23CCC(C)(C)CC2C2=CCC4[C@@]5(C)C[C@H](O)[C@H](O[C@@H]6O[C@H](CO)[C@@H](O)[C@H](O)[C@H]6O)[C@@](C)(C(=O)O)[C@@H]5CC[C@@]4(C)[C@]2(CO)CC3)[C@@H](O[C@H]2O[C@H](C)[C@@H](O[C@@H]3OC[C@@H](O[C@@H]4O[C@H](CO)[C@H](O)[C@H](O)[C@H]4O)[C@H](O[C@@H]4OC[C@H](O)[C@H](O)[C@H]4O)[C@H]3O)[C@H](O[C@@H]3OC[C@](O)(CO)[C@H]3O)[C@@H]2O)[C@H](O)[C@@H]1O (stereo not given in full),> 5 µg/mL,> 5 µg/mL
CC(=O)O[C@H]1C(=O)[C@@]2(C)[C@H]([C@H](OC(=O)c3ccccc3)[C@]3(O)C[C@H](OC(=O)[C@H](O)[C@@H](NC(=O)c4ccccc4)c4ccccc4)C(C)=C1C3(C)C)[C@]1(OC(C)=O)CO[C@@H]1C[C@@H]2O [PACLITAXEL],0.008 µg/mL,0.0053 µg/mL
